ChEMBL document CHEMBL2046420, “Edible Myrciaria vexator fruits: bioactive phenolics for potential COPD therapy” (Bioorg Med Chem, 2012)
Active and inactive are the calls of the source. The calls are words filed in the database; no cut-off is given here.

What was measured:
SAE [1] = experiment: Inhibition of MMP1 mRNA expression in human SAE cells at 1 to 10 ug/ml after 24 hrs by quantitative RT-PCR analysis; type: functional, cell-based
[2] = Cytotoxicity against human SAE cells at 1 to 10 ug/ml; type: cell-based
[3] = Inhibition of CPE-induced MMP1 mRNA expression in human SAE cells after 24 hrs by quantitative RT-PCR analysis relative to control; type: functional
SAE [4] = experiment: Inhibition of CPE-induced MMP1 mRNA expression in human SAE cells after 24 hrs by quantitative RT-PCR analysis; type: functional, cell-based

O=c1oc2c(O)c(O)cc3c(=O)oc4c(O)c(O)cc1c4c23 [ELLAGIC ACID]
inhibition (SAE [1]): Active
Activity [2]: Non-toxic
fold change (FC) [3]: 6
inhibition (SAE [4]): Dose-dependent effect
